Experimental data: patent US8513310B2, “Cosmetic use of phytosphingosine as slimming agent and cosmetic compositions comprising phytosphingosine” (LVMH Recherche, priority 2002, dated 2013)

What was measured:
[1] = system: 3T3-F442A adipocytes; assay: Leptin secretion by murine 3T3-F442A adipocytes in culture (ELISA on supernatants); type: cell-based, mouse; conditions: for increase in the secretion of leptin / stimulation of the leptin secretion: D21, versus control; for leptin (pg/mL) Average in culture supernatants: mature 3T3-F442A adipocytes, control 1510
Procedure: The principle of the test is to control the secretion of leptin by the adipocytes.
Culture of 3T3 F442A Cells
The 3T3 F442A preadipocytes are shown at D0 in 35 mm Petri dishes (Corning) and placed in an oven at 37° C. under an air-CO2 atmosphere (95-5). The cells are cultivated in an Eagle minimum essential medium modified according to Dulbecco (glucose 4.50 g/l) (DMEM-GIBCO BRL) supplemented with 5% of calf serum (CS) (BIOMEDIA®) and 5% of foetal calf serum (GIBCO) during the growth phase. The medium is changed at D2 and D4.
At the cell confluence (at D7), the medium is changed:
The basic medium remains the same (DMEM) but is supplemented with 10% of foetal calf serum (FCS) and insulin (5 μg/mL) (SIGMA).
The medium is then changed at D9 and D11.
At D14, D16 and D18, a treatment is made with the composition the effectiveness of which on the leptin synthesis it is sought to verify.
The leptin secreted is determined by means of a sandwich-type Elisa technique re-running with a Quantikine M Mouse Leptin Immunoassay kit.
This ELISA determination uses recombined mouse leptin, expressed in E. coli and antibodies directed against recombinant mouse leptin.
The test uses a “sandwich” immunoenzymatic technique. The microplate wells are lined with a mouse leptin polyclonal antibody.
The standards, controls and samples are deposited in the wells and, at the same moment, all the leptin present binds to the immobilised antibody.
The bound leptin is then detected by a mouse anti-leptin antibody which is coupled to an enzyme peroxidase. A substrate solution is then added into the wells. The enzymatic reaction leads to a blue solution which turns yellow after addition of a quenching solution.
The intensity of the colour measured is proportional to the amount of leptin present. The reading of the optical density is done at 450 nm on the spectrophotometer.
The determination is obtained afterwards of the dose-response curves in relation to the measurement of natural leptin, parallel to the standard curves obtained with “recombinant” Quantikine M standards. The Quantikine M kit thus enables the relative mass values for the natural mouse leptin to be determined.
The optical density measured at 450 nm is proportional to the amount of antibody fixed, which is itself proportional to the amount of leptin present initially. The results are expressed in pg/mL of leptin present in the cell supernatants.
The samples were tested in triplicate.
Three compositions containing 0.25, 1 and 2 μg/mL, respectively, of phytosphingosine or of its hydrochloride, were tested.

[2] = system: human adipocytes; assay: Release of glycerol by human adipocytes in culture (lipolysis); type: cell-based; conditions: for glycerol (pg/mL) release: 25 μg/mL
From the text: Human adipocytes originating from a plasty of a person, which are marketed by ZEN-BIO (USA), were used at an advanced stage of the adipocyte maturation. The reception of these cells in culture took place 16 days after sowing. […] The properties of Coleus described above for the 3T3F442A murine adipocytes were first of all verified on these human cells: lipolytic activity by measurement of the release of glycerol and non-esterified fatty acids.

[3] = system: human adipocytes; assay: Release of non-esterified fatty acids by human adipocytes in culture; type: cell-based; conditions: dose of 6 ng/mL
From the text: (§1) Human adipocytes originating from a plasty of a person, which are marketed by ZEN-BIO (USA), were used at an advanced stage of the adipocyte maturation. The reception of these cells in culture took place 16 days after sowing. They are cultivated in a specific medium ensuring their differentiation throughout the whole treatment. • D-16: sowing • D0: start of the treatment with the extract of Coleus (PB) and/or phytosphingosine (PS) • D6 to D18: determination of the various parameters. The properties of Coleus described above for the 3T3F442A murine adipocytes were first of all verified on these human cells: lipolytic activity by measurement of the release of glycerol and non-esterified fatty acids.

[4] = system: human adipocytes; assay: Leptin secretion by human adipocytes in culture; type: cell-based; conditions: most effective doses lower than for murine adipocytes
From the text: as §1, with “parameters.” for “parameters. The properties of Coleus described above for the 3T3F442A murine adipocytes were first of all verified on these human cells: lipolytic activity by measurement of the release of glycerol and non-esterified fatty acids.”

[5] = system: glycerol-3-phosphate dehydrogenase (G3PDH); assay: G3PDH activity (lipogenesis) in 3T3 F442A preadipocytes treated with media conditioned by treated mature adipocytes; type: cell-based, mouse; conditions: 8 days, control 0.0016
From the text: Thus, the mature adipocytes are firstly treated with PB+PS Secondly, the culture medium which is conditioned with these adipocytes is placed in contact with preadipocytes the maturation of which into adipocytes will be followed. A key enzyme in the process of synthesis of triglycerides is glycerol-3-phosphate dehydrogenase (G3PDH): its specific activity increases considerably during maturation and can thus be used as a precise and sensitive measurement of adipocyte conversion (Pairault J., Green H., Proc. Nat. Acad. Sci. USA, (1979) 76, 5138-42; Koekemoer T. C. et al, Int. J. Biochem. Cell Biol. (1995) 27, 625-32). […] Since G3PDH is a hydrosoluble enzyme, its activity is measured in the supernatant of the cell grindings, in the presence of appropriate substrates (NADH, TEA (triethanolamine)-EDTA, 50 mM, 1 mM). The specific activity is calculated from these determinations. […] Then, the percentage inhibition is calculated of the inhibition of the activity of the G3PDH produced by the substances compared to the controls. […] The consumption of NADH as a function of time is measured by spectrophotometry (KONTRON) at 340 nm. An absorbance variation/minute (Δ Abs/minute) can thus be calculated which corresponds to the initial rate of the enzymatic reaction. […] The total protein content is evaluated by the BCA method (Protein Assay Reagent-PIERCE LTD)

[6] = 0.25 μg/mL, day D21 (7 days of treatment)

Structure (SMILES) | increase in the secretion of leptin ([1]; 0.25 μg/mL) | leptin (pg/mL) Average in culture supernatants [1, 6] | stimulation of the leptin secretion ([1]; 1 μg/mL) | leptin (pg/mL) Average in culture supernatants ([1]; 1 μg/mL, day D21) | stimulation of the leptin secretion ([1]; 2 μg/mL) | leptin (pg/mL) Average in culture supernatants ([1]; 2 μg/mL, day D21) | glycerol (pg/mL) release ([2]; day 3, control 73.78) | glycerol (pg/mL) release ([2]; day 6, control 120.8) | glycerol (pg/mL) release ([2]; day 9, control 147.2) | glycerol (pg/mL) release ([2]; day 12, control 198.4) | glycerol (pg/mL) release ([2]; day 15, control 196.3) | glycerol (pg/mL) release ([2]; day 18, control 230.9) | glycerol (pg/mL) release ([2]; day 21, control 276.6) | glycerol (pg/mL) release ([2]; day 23, control 238.9) | release of glycerol ([2]; dose of 6 ng/mL) | release of non-esterified fatty acids [3] | leptin secretion in human adipocytes [4] | O.D. (nmoles NAD+) average ([5]; PB 0, PS 0.5 μg/mL) | O.D. (nmoles NAD+) average ([5]; PB 0, PS 1 μg/mL)
CCCCCCCCCCCCCC[C@@H](O)[C@@H](O)[C@@H](N)CO.Cl [Phytosphingosine hydrochloride] | +18% | 1789 pg/mL | +52% | 2301.3 pg/mL | +26% | 1907.9 pg/mL |  |  |  |  |  |  |  |  |  |  |  |  | 
CCCCCCCCCCCCCCC(O)C(O)[C@@H](N)CO (stereo in doubt) [phytosphingosine, (2S,3S,4R)-2-amino-1,3,4-octadecanetriol] | more than 18% | 1789 pg/mL |  | 1563.6 pg/mL |  | 1428.8 pg/mL | 174.4 pg/mL | 196.2 pg/mL | 302.9 pg/mL | 416.4 pg/mL | 460.6 pg/mL | 659.8 pg/mL | 777.1 pg/mL | 687 pg/mL | responsible for a release of glycerol with time | without concomitant release of non-esterified fatty acids | induces an increase of leptin secretion | 0.0014 nmoles NAD+ | 0.00165 nmoles NAD+
